The target in this assay is T1, GRPR (Homo sapiens, UniProt P30550).
T1 construct: Experiments were performed on GRPR-expressing PC-3 cells following our previously described procedure; endogenous in cells; host or cells: PC-3 human prostate carcinoma cells
The assay is described as follows: Displacement cell-binding assay with ^125I-[Tyr4]BBN on PC-3 cells. On the procedure: Experiments were performed with triplicate samples.
BBN as the radioligand. […] Experiments were performed twice with triplicate samples.

The record followed here is patent publication US20100015058A1, “RADIOLABELED BBN-RGD HETERODIMERS FOR CANCER TARGETING” (STANFORD UNIVERSITY, priority 2008, published 2010).

The IC50 is the concentration that gives 50% inhibition.

T1 sequence (P30550 whole entry): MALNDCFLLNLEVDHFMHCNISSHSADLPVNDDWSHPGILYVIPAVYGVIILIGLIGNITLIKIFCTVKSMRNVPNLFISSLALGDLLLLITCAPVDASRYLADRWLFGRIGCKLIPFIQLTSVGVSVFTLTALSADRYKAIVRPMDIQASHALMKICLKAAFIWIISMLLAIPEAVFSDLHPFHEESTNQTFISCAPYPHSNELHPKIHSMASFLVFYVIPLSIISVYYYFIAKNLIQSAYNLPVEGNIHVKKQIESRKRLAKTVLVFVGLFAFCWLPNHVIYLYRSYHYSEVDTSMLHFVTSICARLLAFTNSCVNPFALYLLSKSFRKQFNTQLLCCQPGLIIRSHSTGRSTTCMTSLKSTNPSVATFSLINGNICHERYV

Turning to `CSCC[C@H](NC(=O)[C@H](CC(C)C)NC(=O)[C@H](Cc1c[nH]cn1)NC(=O)CNC(=O)[C@@H](NC(=O)[C@H](C)NC(=O)[C@H](Cc1c[nH]c2ccccc12)NC(=O)[C@H](CCC(N)=O)NC(=O)CCCCCNC(=O)CC[C@H](NC(=O)COCCOCCOCCN)C(=O)NCCCC[C@@H]1NC(=O)[C@@H](Cc2ccc(O)cc2)NC(=O)[C@H](CC(=O)O)NC(=O)CNC(=O)[C@H](CCCNC(=N)N)NC1=O)C(C)C)C(N)=O` [PEG3-Glu-RGD-BBN], the IC50 (FIG. 34B, PEG3-Glu-RGD-BBN series, read-out: IC50, displacement of ^125I-[Tyr4]BBN from PC-3 cells) is 85.4 ± 1.95 nM.
Consider `N=C(N)NCCC[C@@H]1NC(=O)[C@H](CCCCN)NC(=O)[C@@H](Cc2ccc(O)cc2)NC(=O)[C@H](CC(=O)O)NC(=O)CNC1=O` [c(RGDyK), cyclo(Arg-Gly-Asp-D-Tyr-Lys), reference compound], for which the “binding inhibition of ^125I-[Tyr4]BBN with GRPR” value (PC-3 cells, FIG. 14B) is “did not show significant binding inhibition”.
